Common to all, as to assay: growth of human tumour cells (NCI), 48 h
Assay [1] deals with OVCAR-4.
Assay [2] relates to HT-29.
Assay [3] has as its system NCI-H23.
The subject of assay [4] is SF-295.
Assay [5] relates to HCT-116.
The test system of assay [6] is UACC-257.
Assay [7] relates to MOLT-4.
Assay [8] deals with SF-539.
In assay [9] the test system is UACC-62.
In assay [10] the test system is UO-31.
The test system of assay [11] is SW-620.
Assay [12] concerns SK-OV-3.
The subject of assay [13] is CAKI-1.
Assay [14] has as its system RPMI-8226.
Assay [15] has as its system IGROV-1.
Assay [16] concerns Hs-578T.
In assay [17] the test system is DU-145.
For assay [18], the system named is OVCAR-3.
For assay [19], the system named is SK-MEL-2.

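Results reflect a 48-hour exposure of cells in 96-well plates to compound at five concentrations. Here, GI50 denotes the concentration required for 50% inhibition of growth.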 Activity calls are given as the source filed them. Rule as the data show it: active = GI50 up to about 1.1 µM and inactive = higher. A value given as a limit tells only on which side of the number the result lay.

The values below come from ChEMBL document CHEMBL1201862, “PubChem BioAssay data set” (2004).

Take `O=c1[nH]c2ccccc2c2nc3ccccc3n12`: the GI50 in assay [1] is 2 µM (inactive); in assay [2], 49.5 µM (inactive); in [3], 42.5 µM (inactive); in assay [4], 62.4 µM (inactive); in assay [5], 19.1 µM (inactive); in assay [6], 38.1 µM (inactive). Moreover, the GI50 in assay [7] is 36.9 µM (inactive); in [8] it was 24.4 µM (inactive); in assay [9] it was 6.64 µM (inactive); in assay [10] it was 8.49 µM (inactive); in [11], 61.2 µM (inactive); in assay [12], 14 µM (inactive). The GI50 in [13] was 6.37 µM (inactive); in assay [14], > 100 µM (inactive); in assay [15], 0.61 µM (active); in assay [16], 65.6 µM (inactive); in assay [17] it was > 100 µM (inactive); in [18], 54.5 µM (inactive).

As for `CC(=O)Nc1nc2c(=O)c3ccccc3sc2s1`, the GI50 in assay [2], in assay [3], in assay [4], in [5], in assay [6] and in [7] was > 100 µM (inactive) in each case. The GI50 in assay [8], in assay [9], in assay [10], in [13], in [14] and in assay [15] was > 100 µM (inactive) throughout. In addition, the GI50 in [16], in assay [17], in assay [18] and in assay [19] was > 100 µM (inactive) in each case.

For `Sc1nnc(NNc2ccccc2)n1Nc1ccccc1`, the GI50 is 0.236 µM (active) in assay [1]; 4.76 µM (inactive) in [2]; 28.2 µM (inactive) in assay [3]; < 0.01 µM (active) in assay [4]; 2.31 µM (inactive) in [5]; 0.283 µM (active) in [6]. The GI50 in assay [7] is 0.625 µM (active); in assay [8], > 42.5 µM (inactive); in assay [9] it was 0.0427 µM (active); in [11], 28.7 µM (inactive); in assay [12], > 100 µM (inactive); in assay [13] it was > 36.9 µM (inactive). Besides, the GI50 was 2.51 µM (inactive) in assay [14]; 19.8 µM (inactive) in assay [15]; > 64.3 µM (inactive) in assay [16]; > 79.4 µM (inactive) in [17]; > 41.7 µM (inactive) in assay [18].

With `CN(C)/C=N\c1nncc2[nH]nnc12`, the GI50 was > 100 µM (inactive) in [2]; > 100 µM (inactive) in assay [3]; > 100 µM (inactive) in assay [4]; > 100 µM (inactive) in [5]; > 100 µM (inactive) in assay [6]; 54.3 µM (inactive) in assay [7]. The GI50 in [8], in [9], in assay [10], in [11], in [13] and in assay [14] was > 100 µM (inactive) throughout. Besides, the GI50 in assay [15], in [16], in [17], in assay [18] and in [19] was > 100 µM (inactive) throughout.

On to `OC(c1ccccc1)(c1cccnc1)C(O)(c1ccccc1)c1cccnc1` (centres undefined), for which the GI50 in [2], in assay [3], in [4], in assay [5], in assay [6] and in [8] was > 100 µM (inactive) each time. The GI50 in [9], in [10], in assay [11], in assay [12], in [13] and in [14] was > 100 µM (inactive) in each case. Further, the GI50 in assay [15], in [16], in assay [17] and in assay [19] was > 100 µM (inactive) each time.
